In data set [1] the test system is AOM/DSS-induced colon tumors. Briefly: AOM/DSS-induced CAC mouse model, oral gavage. The conditions noted are these: 5 mg/kg oral, vs AOM/DSS group. The data set is classed as in vivo, C57BL/6J mice. On the procedure:
Female C57BL/6J mice (Strain #:000664, The Jackson Laboratory, Bar Harbor, ME), female interleukin-10 knock-out (IL10^−/− mice, B6.129P2-IL10 tmlCgn, The Jackson Laboratory), and female CD-1 mice (CD-1@IGS Mouse, outbred, Charles River) were housed in a clean facility maintained at 22±2° C. and 30-70% relative humidity with a 12-h light/dark cycle. The diet (ABDIET@PICOLAB®, PMI Nutrition International LLC, Arden Hills, MN, USA) and water were provided ad libitum. Mice experiments were performed following ARRIVE guidelines 2.0, with approval from the Georgia State University Institutional Animal Care and Use Committee (IACUC, Protocol #A20039).
An AOM/DSS-induced CAC mouse model (C57BL/6J) was used to test the anti-cancer effects of free M13, NL, and M13-NL. […] Healthy mice were used as the control group (WT group).
Histological assessments of the colon tissues from AOM/DSS-induced CAC mice were performed. […] Immunofluorescence (IF) staining of apoptotic cells (TUNEL) and immunohistochemical (IHC) staining of Ki-67 were used to investigate the pro-apoptotic and anti-proliferative effects of M13-NL in vivo.

Data set [2] in a line: Partition between octanol and aqueous buffer (Log D7.4). The data set is classed as physicochemical. The settings on record: pH 7.4. An excerpt: The main reason for failure in drug development is poor biopharmaceutical properties, which include low aqueous solubility, chemical instability.
The biopharmaceutical properties of the synthesized M13 (5-glutathione-6-shogaol) were characterized.

Another data set deals with HIEC-6 cells. Briefly: MTT viability assay, 2D culture. The data set is classed as cell-based. The settings on record: Homo sapiens. On the procedure: (§1) PBMCs were provided by STEMCELL Technologies (STEMCELL Canada Inc.) and maintained in ImmunoCult™-XF T-cell Expansion Medium (Cat #10981). HIEC-6 cells were maintained in OptiMEM 1 Reduced Serum Medium supplemented with 20 mM HEPES, 10 mM GlutaMAX, 10 ng/mL Epidermal Growth Factor, 4% (v/v) fetal bovine serum (FBS), and 1% penicillin-streptomycin (PS). HCT-116 cells were maintained in ATCC-formulated McCoy's 5a medium, supplemented with 10% (v/v) FBS and 1% PS. Caco-2/BBe cells were grown in DMEM supplemented with 10% (v/v) FBS and 1% PS (v/v). Human colon cancer stem cells (HC-CSC) were maintained in complete growth media with serum and antibiotics (Cat #M36112-39S) from Celprogen Inc. (Torrance, CA, USA).
The […] (MTT) assay was used to study the effects of M13 on the viability of four 2D-cultured human intestinal cell lines (HIEC-6, HCT-116, Caco-2/BBe, and HC-CSC).
Background: Tetrazolium assays rely on reduction of a dye to a coloured formazan, in cell work by metabolically active cells.

For data set [3], the system named is 3D-cultured Caco-2/BBe cells. Briefly: 3D droplet-based cell spheroid model, long-term cytotoxicity. The settings on record: Homo sapiens, Caco-2, 264 h, 11 days. The protocol: To assess the long-term cytotoxicity of M13 against cancer cells, a 3D droplet-based Caco-2/BBe cell spheroid model was established using 3D printing. The diameter of the 3D cell spheres was approximately 1.65-1.75 mm. The 3D-cultured cells were incubated with different concentrations of M13 for 11 days, and droplet size (calculated using scanned images) and viability (live/dead cell staining and intracellular ATP) were analyzed (FIG. 12C). […] The cell viability of the M13-treated spheres was normalized as a percentage of the negative control (NC, 100% viable, without M13 treatment).

Another data set relates to human T lymphocytes. Nature of the data set: Immunogenic effects on T lymphocytes in cultured PBMCs (flow cytometry). The conditions noted are these: 20 μM, 4-day, vs SC and standard control. The data set is classed as cell-based. The protocol: as §1
To evaluate the immunogenic effects of M13 on human T lymphocytes, PBMCs were cultured in blank medium (standard control), medium containing CD3/CD28 activator (positive control), medium containing solvent (solvent control, SC), and medium containing M13 solution (20 μM). All the groups were cultured in the presence or absence of interleukin-2 (IL-2). After a 4-day incubation, PBMCs were labeled with immunofluorescent dyes and analyzed using flow cytometry.

Data set [4] is described as follows: Single-dose maximum tolerated dose (MTD) general toxicity study. In kind it is in vivo, CD-1 mice. The protocol:
A general toxicity study was performed by using maximum tolerated dose (MTD) of M13. Eight-week old mice were orally administered 1000 mg/kg or with PBS. On day one and day 7, mice were examined for weight loss and clinical scores were noted. Clinical signs were scored by assessing activity, appearance, and body condition for seven days.
To further determine the potential acute toxicity of M13 in vivo, a single-dose maximum tolerated dose (MTD) study of M13 was performed in CD-1 mice. Eight-week-old female mice were orally administered a single dose of M13 (1000 mg/kg) or PBS (as control) on day 0 and subjected to regular water and diet for 7 days.

Another data set has as its system Vero cells. The settings on record: added one-hour post-infection setting.
The mark [5] stands for this setting: CD-1 mice, single oral dose 1000 mg/kg, day 7.

Each structure is given as a SMILES string. Some results are limits rather than exact numbers.

Description for Vero cells: Virus and formulations were then left on the cells for the entire duration of the experiment (24 hours). The cytotoxicity of the same range of concentrations of formulations was determined by MTT assay.
The antiviral plates were incubated for 1 hour at 37° C., 5% CO2. The cytotoxicity plates were incubated for 24 hours at 37° C., 5% CO2.
After 24 hours, the infection plates were washed with PBS, fixed for 30 minutes with 4% formaldehyde, washed again with PBS, and stored in PBS at 4° C. until staining. The cytotoxicity plate was treated with MTT to determine cell viability.
Cytotoxicity was detected by MTT assay. Briefly, the MTT reagent (Sigma, M5655) was added to the cells for 2 hours at 37° C., 5% CO2, after which the media was removed, and the precipitate solubilized with a mixture of 1:1 Isopropanol: DMSO for 20 minutes. The supernatant was transferred to a clean plate and signal was read at 570 nm.

The logD is the decadic logarithm of the distribution of all forms, ionised or not, between an organic phase and buffer at a given pH. Usually IC50 stands for the concentration that gives 50% inhibition. A higher IC50 goes with weaker potency in that assay. Usually MTD stands for the highest dose tested that stayed within the study's limit of toxicity. Higher therefore signals better tolerability. For `CCCCCC(CC(=O)CCc1ccc(O)c(OC)c1)SCC(NC(=O)CCC(N)C(=O)O)C(=O)NCC(=O)O` (stereo not drawn) [M13, 5-glutathione-6-shogaol], the number of tumors entry in data set [1] is “failed to reduce the number of tumors”. In data set [2], this compound registered a logD of -1.75. Also, the IC50 in the data set on HIEC-6 cells (HIEC-6) was more than 100 µM. Also, in the data set with HIEC-6 cells (HIEC-6, 24 h), the IC50 is more than 100 µM. Also, the minimal effective concentration in data set [3] (read-out: M13 concentration at which green fluorescence intensity is significantly lower than NC, live/dead staining) was more than 80 µM. Moreover, in data set [3] (ATP content, extrapolated dose-response curve, read-out: half-maximal effective concentration (EC50)), the EC50 is 182 µM. Further, the “proliferation of activated CD4+ and CD8+ lymphocytes” value in the data set on human T lymphocytes (activated-stage (with IL-2)) was “reduced proliferation”. Further, the “percentages of CD4+ and CD8+ T-cell populations and T-cell proliferation status” value in the data set on human T lymphocytes (resting-stage (without IL-2)) was “similar”. Also, the “death or differences in physiological indices” value in data set [4] (CD-1 mice, single oral dose 1000 mg/kg, 7 days, vs PBS) is given as “no significant death or differences”. In data set [4] (setting [5]), the “body weight change, spleen-to-body weight ratio, blood physiological and biochemical indices” value is given as “no significant difference”; the “pathological signs in the anatomical organs” value was “no pathological signs”. This compound also came in with an MTD at 168 h in data set [4] (mouse, in vivo, single-dose oral, mice) of more than 1000 mg/kg. The “weight loss and clinical signs” value in data set [4] (oral 1000 mg/kg, seven days of observation, vs PBS) is given as “No significant changes”. The “white blood cell number, red blood cell number, hemoglobin levels, parameters of hepatic or renal function” value in data set [4] (oral 1000 mg/kg, vs PBS) is listed as “no significant differences”. Moreover, the toxicity entry in the data set on Vero cells is reported as “low toxicity”.

Values taken from patent publication US20260285903A1, “SYNTHESIZED BIOLOGICALLY ACTIVE COMPOUNDS AND METHODS OF MAKING AND USING” (Georgia State University Research Foundation, Inc., priority 2023, published 2026).
